# Data as given in article PMC7226989, “Establishment of an in Vitro Human Blood-Brain Barrier Model Derived from Induced Pluripotent Stem Cells and Comparison to a Porcine Cell-Based System” (Cells, 2020).
# Like-named read-outs stand apart in the source and are kept apart here.
# What was measured:
# hiPSC-derived BMECs [1] = assay: Human BBB model permeability, clone not specified or both clones; details: for Permeability classification in words: human BBB model, for several compounds stated for both human and porcine models
# in vitro [2] = details: human
# [3] = Permeability assay across hiPSC-derived BMECs clone 1 on Transwell, co-culture with human astrocytes
# [4] = Permeability assay across hiPSC-derived BMECs clone 2 on Transwell, co-culture with human astrocytes
# [5] = tested on: hiPSC-derived BMECs (r-iSPC 1j cells); parameters: method as in Delsing et al. 34; details: ref Delsing et al. 34; cited from earlier work
# [6] = tested on: hiPSC-derived BMECs (IMR-90); details: cited from earlier work
# in vitro [7] = details: human; remark: listed apart in the source
# hiPSC-derived BMECs [8] = tested on: hiPSC-derived BMECs
# [9] = tested on: hiPSC-derived BMECs (Cl1)
# [10] = tested on: hiPSC-derived BMECs (Cl1); assay: Permeability assay across hiPSC-derived BMECs clone 1 on Transwell, co-culture with human astrocytes
# [11] = tested on: primary porcine brain endothelial cells (PBECs); assay: Porcine BBB model transport assay; details: porcine vs human
# [12] = tested on: hiPSC-derived BMECs (Cl2)
# [13] = Human BBB model permeability, clone not specified or both clones; details: human
# [14] = tested on: primary porcine brain endothelial cells (PBECs); details: cited from earlier work
# [15] = tested on: human endothelial cell line hCMEC/D3; parameters: method as in PMID 30374619; details: cited from earlier work
# hiPSC-derived BMECs [16] = details: ref Lippmann 6; cited from earlier work
compound,measurement,setting,value
NCC1(CC(=O)O)CCCCC1 [gabapentin],Permeability classification in words,hiPSC-derived BMECs [1],moderate to high permeability
same,Papp,in vitro [2],120 nm/s
same,Papp,[3]; human,119 ± 29 nm/s
N[C@@H](Cc1ccccc1)C(=O)O [phenylalanine],Fold higher permeability in the human than in the porcine model,hiPSC-derived BMECs [1]; human vs porcine,two-fold
same,Papp,[4],286 ± 57 nm/s
CC(C)NCC(O)COc1cccc2ccccc12 (stereo not shown) [propranolol],Papp,in vitro [2],220 to 260 nm/s
same,Published permeability,[5],226 nm/s
same,Published permeability,[6]; ref Mantle et al. 35,around 30 × 10^−6 cm/s
same,Papp,in vitro [7]; Permeability human BBB_Cl1,258 ± 46 nm/s
same,Permeability classification in words,hiPSC-derived BMECs [8],highly permeable
same,Papp,[4],220 ± 24 nm/s
COc1cccc2c1C(=O)c1c(O)c3c(c(O)c1C2=O)C[C@@](O)(C(C)=O)C[C@@H]3O[C@H]1C[C@H](N)[C@H](O)[C@H](C)O1 [daunomycin],Papp,in vitro [2],70 to 90 nm/s
same,Papp,in vitro [7]; Permeability human BBB_Cl1,93 ± 27 nm/s
same,Fold higher permeability in the human than in the porcine model,hiPSC-derived BMECs [8],two-fold
same,Permeability classification in words,hiPSC-derived BMECs [8],medium permeability
same,Papp,[4],65 ± 7 nm/s
C[C@H]1O[C@@H](O[C@H]2[C@@H](O)C[C@H](O[C@H]3[C@@H](O)C[C@H](O[C@H]4CC[C@@]5(C)[C@H](CC[C@@H]6[C@@H]5C[C@@H](O)[C@]5(C)[C@@H](C7=CC(=O)OC7)CC[C@]65O)C4)O[C@@H]3C)O[C@@H]2C)C[C@H](O)[C@@H]1O [digoxin],Papp B→A,in vitro [7],73 ± 6 nm/s
CC(C)C[C@H](N)C(=O)O [leucine],"Vectorial transport, AB direction over BA direction",[9],three-fold
same,Papp,in vitro [2],180 to 200 nm/s
same,Papp A→B,in vitro [7],185 ± 22 nm/s
same,Papp B→A,in vitro [7],64 ± 7 nm/s
same,Papp,in vitro [7]; Permeability human BBB_Cl1,180 ± 18 nm/s
same,Reduction of transport in the presence of JPH203,"[10]; 10 µM JPH203, selective LAT1 inhibitor",about 70%
same,Fold higher permeability in the human than in the porcine model,hiPSC-derived BMECs [8],about three-fold
same,Permeability classification in words,hiPSC-derived BMECs [8],highly permeable
same,Papp,[4],199 ± 64 nm/s
CN(Cc1cnc2nc(N)nc(N)c2n1)c1ccc(C(=O)N[C@@H](CCC(=O)O)C(=O)O)cc1 [methotrexate],Fold higher permeability in the porcine than in the human model,[11],eight times
same,Papp,in vitro [7]; Permeability human BBB_Cl1,6.5 ± 1.2 nm/s
same,Papp,[4],7.7 ± 1 nm/s
Cn1c(=O)c2c(ncn2C)n(C)c1=O [caffeine],Papp,in vitro [2],270 to 310 nm/s
same,Published permeability,"[6]; IMR-90 cells, ref Appelt-Menzel et al. 36",253 nm/s
same,Papp,in vitro [7]; Permeability human BBB_Cl1,307 ± 20 nm/s
same,Permeability classification in words,hiPSC-derived BMECs [8],highly permeable
same,Papp,[4],265 ± 6 nm/s
CC(C)[C@H](NC(=O)[C@H](CCC(=O)O)NC(=O)[C@H](Cc1ccccc1)NC(=O)[C@@H](C)NC(=O)[C@@H](N)Cc1ccc(O)cc1)C(=O)N[C@H](C(=O)NCC(N)=O)C(C)C [[D-Ala2]deltorphin II],Fold higher permeability in the porcine than in the human model,[11],two-fold
same,Permeability classification in words,hiPSC-derived BMECs [1],moderate permeability
same,Papp,[3],38 ± 5 nm/s
same,Papp,,77 ± 17 nm/s
lucifer yellow,Permeability A-B,[9],0.15 ± 0.001 x10^-6 cm/s
same,Permeability B-A,[9],0.13 ± 0.004 x10^-6 cm/s
same,Permeability fresh,[9],0.21 ± 0.12 x10^-6 cm/s
same,Permeability frozen,[9],0.09 ± 0.04 x10^-6 cm/s
same,Permeability human BBB_Cl1,[9],0.18 ± 0.11 x10^-6 cm/s
same,efflux ratio,[9],0.9
same,Permeability human BBB_Cl2,[12],0.33 ± 0.30 x10^-6 cm/s
O=C1NC(=O)C(c2ccccc2)(c2ccccc2)N1 [phenytoin],Papp,[13],190 to 210 nm/s
same,Permeability classification in words,hiPSC-derived BMECs [1],highly permeable
same,Published permeability,[5],356 nm/s
same,Papp,"[3]; human, Permeability human BBB_Cl1, Figure 5C, mean ± sd",213 ± 21 nm/s
same,Papp,[4],186 ± 9 nm/s
OC[C@H]1OC(O)[C@H](O)[C@@H](O)[C@@H]1O (stereo partly shown) [glucose],Papp,in vitro [7]; Permeability human BBB_Cl1,250 ± 27 nm/s
same,Permeability in the porcine model,[14],70 nm/s
same,Inhibition of transport by phloretin,[10]; 200 µM phloretin,~80%
same,Fold higher permeability in the human than in the porcine model,hiPSC-derived BMECs [8]; human and pig,more than 3.5
same,Papp,[4],252 ± 79 nm/s
CC(C)C[C@H](CN)CC(=O)O [pregabalin],Inhibition in the uptake after LAT-1 mRNA silencing,[15],75%
OC[C@@H](O)[C@@H](O)[C@H](O)[C@H](O)CO [mannitol],Papp,in vitro [7]; Permeability fresh,5.6 ± 2.8 nm/s
same,Papp,in vitro [7]; Permeability frozen,6.7 ± 2.5 nm/s
same,Papp,in vitro [7]; Permeability human BBB_Cl1,6 ± 2.4 nm/s
same,Papp,[4],8 ± 1 nm/s
CCC(=O)CCCCCC(NC(=O)C1CN(C)C1)c1ncc(-c2cc3ccccc3nc2OC)o1 (stereo not shown) [cpK],Papp,[13],154 ± 83 nm/s
same,Permeability classification in words,hiPSC-derived BMECs [1],medium permeability
same,Permeability porcine BBB,[14],10.5 ± 3.4 x10^-6 cm/s
CC[C@]1(O)C[C@@H]2CN(CCc3c([nH]c4ccccc34)[C@@](C(=O)OC)(c3cc4c(cc3OC)N(C)[C@H]3[C@@](O)(C(=O)OC)[C@H](OC(C)=O)[C@]5(CC)C=CCN6CC[C@]43[C@@H]65)C2)C1 [vinblastine],efflux ratio,in vitro [7],1.5
same,Papp,in vitro [7]; Permeability human BBB_Cl1,41 ± 4 nm/s
same,Fold higher permeability in the human than in the porcine model,hiPSC-derived BMECs [8],two-fold
same,Permeability classification in words,hiPSC-derived BMECs [8],medium permeability
same,Papp,[4],35 ± 8 nm/s
CC(=O)O[C@H]1C(=O)[C@@]2(C)[C@H]([C@H](OC(=O)c3ccccc3)[C@]3(O)C[C@H](OC(=O)[C@H](O)[C@@H](NC(=O)c4ccccc4)c4ccccc4)C(C)=C1C3(C)C)[C@]1(OC(C)=O)CO[C@@H]1C[C@@H]2O [taxol],Papp A→B,in vitro [7],63 ± 6 nm/s
same,Papp B→A,in vitro [7],154 ± 5 nm/s
same,efflux ratio,in vitro [7],2.4
same,Papp,in vitro [7]; Permeability human BBB_Cl1,68 ± 7 nm/s
same,Papp,[4],49 ± 10 nm/s
O=C(O)c1cc(=O)c2ccccc2[nH]1 [kynurenic acid],Papp,in vitro [2],3 nm/s
same,Papp,in vitro [7]; Permeability human BBB_Cl1,3.2 ± 0.6 nm/s
same,Permeability in porcine (unit not given),[14]; porcine model,2.8
same,Permeability classification in words,hiPSC-derived BMECs [8],low permeability
COc1cc2nc(N3CCN(C(=O)c4ccco4)CC3)nc(N)c2cc1OC [prazosin],Published permeability,[6]; ref Kurosawa 20,87 nm/s
same,Published permeability,hiPSC-derived BMECs [16],43 nm/s
